In patent publication US7528250B2, “Chroman derivatives and uses thereof” (Roche Palo Alto LLC, priority 2004, dated 2009):
Structures can show the parent of a compound that is named as a salt.

Legend:
[1] = molecular target: T1, recombinant human 5-HT2A receptor (Homo sapiens, UniProt P28223); assay: Radioligand binding, [3H]Ketanserin competition, membranes of CHO-K1 cells expressing 5-HT2A; details: CHO-K1 cell membranes, pH 7.4, 32° C., 60 min, read-out: pKi for 5-HT2A (converted)
T1 construct: expressed in transfected cells; membranes
T1 sequence (P28223 whole entry): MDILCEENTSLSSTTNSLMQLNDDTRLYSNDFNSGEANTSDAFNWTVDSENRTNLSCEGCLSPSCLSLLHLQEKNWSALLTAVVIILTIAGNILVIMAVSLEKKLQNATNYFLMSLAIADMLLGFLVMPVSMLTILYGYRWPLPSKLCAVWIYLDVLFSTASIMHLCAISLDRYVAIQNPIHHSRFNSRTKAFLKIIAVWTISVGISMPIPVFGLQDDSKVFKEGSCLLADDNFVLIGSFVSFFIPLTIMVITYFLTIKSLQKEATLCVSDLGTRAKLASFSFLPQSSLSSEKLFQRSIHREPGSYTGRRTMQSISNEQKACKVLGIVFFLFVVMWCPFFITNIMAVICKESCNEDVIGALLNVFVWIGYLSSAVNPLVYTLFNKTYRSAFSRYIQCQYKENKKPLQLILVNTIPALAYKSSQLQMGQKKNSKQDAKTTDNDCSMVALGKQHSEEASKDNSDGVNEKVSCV
Protocol: (§1) The binding activity of compounds of this invention in vitro was determined as follows. Duplicate determinations of 5-HT6 ligand affinity were made by competing for binding of [^3H]LSD in cell membranes derived from HEK293 cells stably expressing recombinant human 5-HT6 receptor. Duplicate determinations of 5-HT2A ligand affinity were made by competing for binding of [^3H]Ketanserin (3-(2-(4-(4-fluorobenzoyl)piperidinol)ethyl)-2,4(1H,3H)-quinazolinedione) in cell membranes derived from CHO-K1 cells stably expressing recombinant human 5-HT2A receptor. Membranes were prepared from HEK 293 cell lines by the method described by Monsma et al., Molecular Pharmacology, Vol. 43 pp. 320-327 (1993), and from CHO-K1 cell lines as described by Bonhaus et al., Br J Pharmacol. June; 115(4):622-8 (1995).
(§2) For estimation of affinity at the 5-HT6 receptor, all determinations were made in assay buffer containing 50 mM Tris-HCl, 10 mM MgSO4, 0.5 mM EDTA, 1 mM ascorbic acid, pH 7.4 at 37° C., in a 250 microliter reaction volume. […]
(§3) Assay tubes containing [^3H] […] LSD or [^3H]Ketanserin were determined as radioactive counts per minute using Packard TopCount.
(§4) Displacement of [^3H]LSD or [^3H]Ketanserin from the binding sites was quantified by fitting concentration-binding data to a 4-parameter logistic equation: […]

[2] = molecular target: T2, recombinant human 5-HT6 receptor (Homo sapiens, UniProt P50406); assay: Radioligand binding, [3H]LSD competition, membranes of HEK293 cells expressing 5-HT6; details: HEK293 cell membranes, pH 7.4, 37° C., 75 min, read-out: pKi for 5-HT6 (converted)
T2 construct: expressed in transfected cells; membranes
T2 sequence (P50406 whole entry): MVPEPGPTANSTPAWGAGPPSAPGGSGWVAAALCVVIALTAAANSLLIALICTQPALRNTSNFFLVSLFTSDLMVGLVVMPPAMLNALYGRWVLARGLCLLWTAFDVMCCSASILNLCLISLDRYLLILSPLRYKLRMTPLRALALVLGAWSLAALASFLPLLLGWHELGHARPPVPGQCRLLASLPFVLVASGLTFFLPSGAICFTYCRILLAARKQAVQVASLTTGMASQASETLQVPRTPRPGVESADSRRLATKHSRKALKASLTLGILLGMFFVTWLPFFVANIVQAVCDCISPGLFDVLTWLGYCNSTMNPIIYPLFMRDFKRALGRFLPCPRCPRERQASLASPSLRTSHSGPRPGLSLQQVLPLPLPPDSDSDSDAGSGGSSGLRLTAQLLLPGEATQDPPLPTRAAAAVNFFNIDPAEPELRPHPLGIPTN
Protocol: as §1, §2, §3, §4

Row | melting point | Ki [1] | Ki [2] | Structure (SMILES)
1 | 243 to 249 °C | – | – | O=S(=O)(c1ccccc1)c1ccc2c(c1)OCCC2N1CCNCC1 (stereo not drawn) (as salt: HCl) [Compound 1, 1-(7-Benzenesulfonyl-chroman-4-yl)-piperazine]
2 | – | ~46.8 nM | ~0.417 nM | O=S(=O)(c1ccccc1)c1ccc2c(c1)OCCC2N1CCNCC1 (stereo not drawn) [Compound 1, 1-(7-Benzenesulfonyl-chroman-4-yl)-piperazine]
